Calls of active or inactive are those of the source. The rule behind the calls is not given here.
Tested on: StAR promoter luciferase reporter cells, luminescence counterscreen
Experiment: StAR promoter reporter inhibition counter-screen, dose response, counter-screen for LRH-1 inverse agonist project, cell-based, luminescence, luciferase reporter (AID 651969)

COc1ccc(NC(=O)COC(=O)c2cc(S(=O)(=O)N3CCCC3)ccc2O)cc1
IC50: > 35.9 µM (inactive)

— PubChem BioAssay AID651969 (The Scripps Research Institute Molecular Screening Center, 2013)
